Measured values taken from ChEMBL document CHEMBL1142710, “3D-QSAR comparative molecular field analysis on opioid receptor antagonists: pooling data from different studies” (J Med Chem, 2005).

Experiments:
Mu-type opioid receptor = Mu-type opioid receptor (Rattus norvegicus, UniProt P33535); assay: Binding affinity against Opioid receptor mu 1 from rat brain membranes using [3H]DAMGO
[1] = target: Delta-type opioid receptor (Rattus norvegicus, UniProt P33533); assay: Binding affinity against Opioid receptor delta 1 from rat brain membranes using [3H]DADLE
Delta-type opioid receptor, sequence (P33533 whole entry): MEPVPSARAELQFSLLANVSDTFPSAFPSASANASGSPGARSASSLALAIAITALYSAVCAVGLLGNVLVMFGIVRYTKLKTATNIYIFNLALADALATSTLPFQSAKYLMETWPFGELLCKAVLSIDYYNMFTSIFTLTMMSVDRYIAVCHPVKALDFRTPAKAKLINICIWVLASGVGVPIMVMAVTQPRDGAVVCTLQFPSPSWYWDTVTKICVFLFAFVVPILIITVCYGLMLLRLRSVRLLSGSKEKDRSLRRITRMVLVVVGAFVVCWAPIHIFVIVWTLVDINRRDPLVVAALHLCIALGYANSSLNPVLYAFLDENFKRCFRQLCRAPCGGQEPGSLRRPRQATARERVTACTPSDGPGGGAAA

[2] = target: Kappa-type opioid receptor (Cavia porcellus, UniProt P41144); assay: Binding affinity against Opioid receptor kappa 1 from guinea pig brain membranes using [3H]U-69593
Kappa-type opioid receptor, sequence (P41144 whole entry): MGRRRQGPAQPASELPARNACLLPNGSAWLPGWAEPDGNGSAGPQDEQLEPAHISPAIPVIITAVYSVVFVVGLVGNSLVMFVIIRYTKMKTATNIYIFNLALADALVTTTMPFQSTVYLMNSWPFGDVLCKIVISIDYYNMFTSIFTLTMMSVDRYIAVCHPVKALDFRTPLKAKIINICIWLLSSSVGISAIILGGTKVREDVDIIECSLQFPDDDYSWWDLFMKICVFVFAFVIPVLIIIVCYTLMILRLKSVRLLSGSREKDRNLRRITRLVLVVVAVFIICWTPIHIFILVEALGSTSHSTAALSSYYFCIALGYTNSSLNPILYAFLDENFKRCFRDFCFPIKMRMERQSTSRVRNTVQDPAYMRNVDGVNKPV

Mu-type opioid receptor, sequence (P33535 whole entry): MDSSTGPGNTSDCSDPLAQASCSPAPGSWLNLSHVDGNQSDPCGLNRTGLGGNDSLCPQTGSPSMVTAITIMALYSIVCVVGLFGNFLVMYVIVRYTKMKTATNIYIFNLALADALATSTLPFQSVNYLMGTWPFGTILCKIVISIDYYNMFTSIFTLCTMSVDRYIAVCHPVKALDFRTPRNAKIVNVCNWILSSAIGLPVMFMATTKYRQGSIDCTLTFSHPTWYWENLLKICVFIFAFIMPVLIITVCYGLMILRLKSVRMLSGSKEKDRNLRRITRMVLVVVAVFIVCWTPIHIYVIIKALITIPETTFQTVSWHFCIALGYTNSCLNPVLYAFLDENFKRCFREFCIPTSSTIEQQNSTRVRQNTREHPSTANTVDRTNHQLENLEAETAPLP

| Compound | Ki (Mu-type opioid receptor) [nM] | Ki [1] [nM] | Ki [2] [nM] |
| --- | --- | --- | --- |
| C=C(C)CN1CC[C@]23c4c5ccc(O)c4O[C@@H]2c2[nH]c4ccccc4c2C(C)[C@H]3[C@H]1C5 (some centres undefined) | 1070 | 8.91 | 851 |
| CCCCOc1cccc2c1[C@]13CCN(CC4CC4)[C@H](C2)[C@]1(OC)CCC(=O)C3 | 13.8 | 759 | 263 |
| CC1CN(CCCc2ccccc2)C2CC(N)CC1(c1cccc(O)c1)C2 (centres undefined) | 3.31 | 14.8 | 123 |
| CCCCN1CC[C@]23c4c5ccc(O)c4O[C@@H]2c2[nH]c4ccccc4c2C[C@@]3(O)[C@H]1C5 | 1290 | 8.32 | 891 |
| Oc1ccc2c3c1O[C@@H]1c4[nH]c5cccc(Oc6ccccc6)c5c4C[C@@]4(O)[C@@H](C2)N(CC2CC2)CC[C@]314 | 1450 | 67.6 | 1320 |
| Oc1ccc2c3c1O[C@@H]1c4[nH]c5cc(Oc6ccccc6)ccc5c4C[C@@]4(O)[C@@H](C2)N(CC2CC2)CC[C@]314 | 234 | 6.46 | 234 |
| Oc1ccc2c3c1O[C@@H]1c4[nH]c5c(Oc6ccccc6)cccc5c4C[C@@]4(O)[C@@H](C2)N(CC2CC2)CC[C@]314 | 33.9 | 0.708 | 33.9 |
| CN1CCC23c4c5ccc(O)c4O[C@H]2c2ncc(-c4ccc(Cl)cc4)cc2C[C@@]3(O)C1C5 (some centres undefined) | 229 | 3.89 | 468 |
| O=C(Oc1ccc2c3c([nH]c2c1)[C@H]1Oc2c(O)ccc4c2[C@@]12CCN(CC1CC1)[C@H](C4)[C@]2(O)C3)c1ccccc1 | 676 | 6.76 | 468 |
| C/C=C/CN1CC[C@]23c4c5ccc(O)c4O[C@@H]2c2[nH]c4ccccc4c2C[C@@]3(O)[C@H]1C5 | 1200 | 7.41 | 955 |
| Oc1ccc2c3c1O[C@H]1c4ncc(-c5ccc(Cl)cc5)cc4C[C@H]4C(C2)N(CC2CC2)CCC314 (some centres undefined) | 61.7 | 2.57 | 6.03 |
| Cc1cc(-c2ccccc2)c2c(n1)[C@@H]1Oc3c(O)ccc4c3C13CCN(CC1CC1)C(C4)[C@]3(O)C2 (some centres undefined) | 155 | 126 | 676 |
| CCN1CC[C@]23c4c5ccc(O)c4O[C@@H]2c2[nH]c4ccccc4c2C[C@@]3(O)[C@H]1C5 | 2510 | 5.01 | 3020 |
| C=C(C)CN1CCC23c4c5ccc(O)c4O[C@H]2C(=O)/C(=C\c2ccccc2)C[C@@]3(O)C1C5 (some centres undefined) | 4470 | 209 | 4470 |
| COc1cccc2c1[C@]13CCN(CC4CC4)[C@H](C2)[C@]1(OC)CCC(=O)C3 [CYPRODIME] | 10.7 | 417 | 110 |
| CC(C)CCN1CC[C@]23c4c5ccc(O)c4O[C@@H]2c2[nH]c4ccccc4c2C[C@@]3(O)[C@H]1C5 | 1290 | 3.8 | 676 |
| CO[C@@]12CCC(=O)CC13CCN(CC1CC1)C2Cc1cccc(OC/C=C/c2ccccc2)c13 (some centres undefined) | 28.2 | 832 | 363 |
| C=CCN1CCC23c4c5ccc(O)c4O[C@H]2c2ncc(-c4ccc(Cl)cc4)cc2C[C@@]3(O)C1C5 (some centres undefined) | 468 | 8.13 | 75.9 |
| Cc1nc(-c2ccccc2)c2c(n1)[C@@H]1Oc3c(O)ccc4c3C13CCN(CC1CC1)C(C4)[C@]3(O)C2 (some centres undefined) | 251 | 324 | 562 |
| O=C1CC[C@@]2(OCCCc3ccccc3)C3Cc4cccc5c4C2(CCN3CC2CC2)C1O5 (some centres undefined) | 0.832 | 45.7 | 22.9 |
| CCCCCCOc1cccc2c1C13CCN(CC4CC4)C(C2)[C@]1(OC)CCC(=O)C3 (some centres undefined) | 44.7 | 1170 | 437 |
| COc1cccc2c1C13CCN(CC4CC4)C(C2)[C@]1(OCCCc1ccccc1)CCC(=O)C3 (some centres undefined) | 0.339 | 17 | 7.41 |
| Cc1ncc2c(n1)[C@@H]1Oc3c(O)ccc4c3C13CCN(CC1CC1)C(C4)[C@]3(O)C2 (some centres undefined) | 6.03 | 22.9 | 25.1 |
